What was measured:
[1] = tested on: kochia; test: Test C pre-/postemergence test; type: in vivo, Kochia scoparia
Method in brief: (§1)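 Test chemicals were formulated with surfactant in a non-phytotoxic solvent and sprayed both on freshly planted seeds (preemergence) and on 1- to 4-leaf plants of 2–18 cm (postemergence). Flooded-paddy pots received compound directly into 3 cm of standing water, maintained for the test.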

[2] = tested on: giant foxtail; test: Test C pre-/postemergence test; type: in vivo, Setaria faberii
Method in brief: as §1

[3] = tested on: eastern black nightshade; test: Test C pre-/postemergence test; type: in vivo, Solanum ptycanthum
Method in brief: as §1

[4] = tested on: crabgrass; test: Test C pre-/postemergence test; type: in vivo, Digitaria sanguinalis
Method in brief: as §1

[5] = tested on: duck salad; test: Test C flooded paddy test; type: in vivo, Heteranthera limosa; conditions: Flood
Method in brief: (§2)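 Flooded 3 cm over soil; compound into paddy water; depth kept constant. Greenhouse 13–15 d.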

[6] = tested on: johnsongrass; test: Test C pre-/postemergence test; type: in vivo, Sorghum halepense
Method in brief: as §1

[7] = tested on: common ragweed; test: Test C pre-/postemergence test; type: in vivo, Ambrosia elation
Method in brief: as §1

[8] = tested on: green foxtail; test: Test C pre-/postemergence test; type: in vivo, Setaria viridis
Method in brief: as §1

[9] = tested on: wild oat; test: Test C pre-/postemergence test; type: in vivo, Avena fatua
Method in brief: as §1

[10] = tested on: barnyardgrass; test: Test A pre-/postemergence greenhouse test; type: in vivo, Echinochloa crus-galli; conditions: for Plant response rating, Barnyardgrass: 0 to 100 scale where 0 is no effect and 100 is complete control; for Barnyardgrass plant response rating: 0 to 100 scale
Method in brief: (§3)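 Visual injury ratings, made relative to untreated controls roughly ten days after treatment, cover both preemergence and postemergence application. Compounds in a surfactant-containing non-phytotoxic solvent were sprayed onto the soil surface after sowing and, simultaneously, onto young plants at the one- to two-leaf stage.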

[11] = tested on: lambsquarters; test: Test C pre-/postemergence test; type: in vivo, Chenopodium album
Method in brief: as §1

[12] = tested on: downy brome; test: Test C pre-/postemergence test; type: in vivo, Bromus tectorum
Method in brief: as §1

[13] = tested on: velvetleaf; test: Test A pre-/postemergence greenhouse test; type: in vivo, Abutilon theophrasti; conditions: for Plant response rating, Velvetleaf: 0 to 100 scale where 0 is no effect and 100 is complete control; for Velvetleaf plant response rating: 0 to 100 scale
Method in brief: as §3

[14] = tested on: rice; test: Test C flooded paddy test; type: in vivo, Oryza sativa; conditions: Flood
Method in brief: as §2

[15] = tested on: Surinam grass; test: Test C pre-/postemergence test; type: in vivo, Brachiaria decumbens
Method in brief: as §1

[16] = tested on: velvetleaf; test: Test C pre-/postemergence test; type: in vivo, Abutilon theophrasti
Method in brief: as §1

[17] = tested on: cocklebur; test: Test C pre-/postemergence test; type: in vivo, Xanthium strumarium; conditions: for Cocklebur plant response rating: preemergence, scale 0 (no effect) to 100 (complete control)
Method in brief: as §1

[18] = tested on: redroot pigweed; test: Test A pre-/postemergence greenhouse test; type: in vivo, Amaranthus retroflexus; conditions: for Plant response rating, Pigweed: 0 to 100 scale where 0 is no effect and 100 is complete control; for Pigweed plant response rating: 0 to 100 scale
Method in brief: as §3

[19] = 62 g ai/ha, Preemergence, scale 0 to 100
[20] = 125 g ai/ha, preemergence, scale 0 (no effect) to 100 (complete control)
[21] = Preemergence, 31 g ai/ha, scale 0 to 100 (0 no effect, 100 complete control)
[22] = preemergence, 250 g ai/ha, scale 0 (no effect) to 100 (complete control)
[23] = 62 g ai/ha, scale 0 to 100 (0 no effect, 100 complete control)
[24] = 250 g ai/ha, scale 0 to 100, 0 no effect, 100 complete control, 13 to 15 days
[25] = Postemergence, 500 g ai/ha, 0 is no effect, 100 is complete control
[26] = Preemergence, 125 g ai/ha, 0 no effect, 100 complete control

CC(Oc1c(C[S+]([O-])c2cccc[n+]2[O-])c(C(F)(F)F)nn1C)C(F)(F)F (stereo not shown) [Compound 77]
30: Plant response rating, Rice [14, 23]
75: Plant response rating, Ducksalad [5, 23]
45: Bromegrass, Downy plant response rating [12, 19]
50: Plant response rating, Velvetleaf ([13]; Postemergence, 125 g ai/ha) | Velvetleaf plant response rating [13, 26]
95: Oat, Wild plant response rating [9, 22]
80: Plant response rating, Foxtail, Giant [2, 21] | Plant response rating, Crabgrass, Large [4, 21] | Plant response rating, Barnyardgrass ([10]; Postemergence, 125 g ai/ha) | Pigweed plant response rating [18, 25]
70: Oat, Wild plant response rating [9, 19] | Bromegrass, Downy plant response rating [12, 20] | Plant response rating, Rice [14, 24] | Plant response rating, Pigweed ([18]; Postemergence, 125 g ai/ha) | Pigweed plant response rating [18, 26]
0: Plant response rating, Bromegrass, Downy [12, 21] | Cocklebur plant response rating ([17]; 125 g ai/ha) | Plant response rating, Cocklebur [17, 21] | Cocklebur plant response rating ([17]; 250 g ai/ha)
100: Kochia plant response rating [1, 19] | Kochia plant response rating [1, 20] | Plant response rating, Kochia [1, 21] | Kochia plant response rating [1, 22] | Foxtail, Giant plant response rating [2, 19] | Foxtail, Giant plant response rating [2, 20] | Foxtail, Giant plant response rating [2, 22] | Nightshade plant response rating [3, 19] | Nightshade plant response rating [3, 20] | Plant response rating, Nightshade [3, 21] | Nightshade plant response rating [3, 22] | Crabgrass, Large plant response rating [4, 19] | Crabgrass, Large plant response rating [4, 20] | Crabgrass, Large plant response rating [4, 22] | Plant response rating, Ducksalad [5, 24] | Johnsongrass plant response rating [6, 19] | Johnsongrass plant response rating [6, 20] | Johnsongrass plant response rating [6, 22] | Ragweed plant response rating [7, 19] | Ragweed plant response rating [7, 20] | Plant response rating, Ragweed [7, 21] | Ragweed plant response rating [7, 22] | Foxtail, Green plant response rating [8, 20] | Foxtail, Green plant response rating [8, 22] | Plant response rating, Barnyardgrass ([10]; Preemergence, 500 g ai/ha) | Lambsquarters plant response rating [11, 19] | Lambsquarters plant response rating [11, 20] | Plant response rating, Lambsquarters [11, 21] | Lambsquarters plant response rating [11, 22] | Bromegrass, Downy plant response rating [12, 22] | Plant response rating, Velvetleaf ([13]; Preemergence, 500 g ai/ha) | Surinam Grass plant response rating [15, 19] | Surinam Grass plant response rating [15, 20] | Surinam Grass plant response rating [15, 22] | Velvetleaf plant response rating [16, 19] | Velvetleaf plant response rating [16, 20] | Velvetleaf plant response rating [16, 22] | Plant response rating, Pigweed ([18]; Preemergence, 500 g ai/ha)
90: Oat, Wild plant response rating [9, 20] | Barnyardgrass plant response rating [10, 25] | Barnyardgrass plant response rating [10, 26] | Velvetleaf plant response rating [13, 25]
35: Plant response rating, Oat, Wild [9, 21]
60: Plant response rating, Johnsongrass [6, 21] | Plant response rating, Velvetleaf [16, 21]
85: Foxtail, Green plant response rating [8, 19] | Plant response rating, Foxtail, Green [8, 21] | Plant response rating, Surinam Grass [15, 21]
